# Laboratory results published in paper PMC6968633, “Synthesis, antibacterial and anticancer activity, and docking study of aminoguanidines containing an alkynyl moiety” (Journal of Enzyme Inhibition and Medicinal Chemistry, 2019).
# Legend:
# SGC7901 = test: Cytotoxicity, CCK-8 assay; type: cell-based; settings: Homo sapiens, SGC-7901, SGC7901 gastric cancer cells, 48 h
# Procedure: (§1) A lung cancer cell line (A549), gastric cancer cell line (SGC7901) and human hepatocytes (L02) were used to test the anticancer activity and cytotoxicity of the new compounds. 5-Fluorouracil (5-FU) was used as the positive control against cancer cell lines. The A549, SGC7901 and L02 cells were grown in Dulbecco’s modified Eagle’s medium (DMEM) supplemented with 10% foetal bovine serum (FBS) and antibiotics (100 U/mL penicillin-streptomycin). Cells at 80–90% confluence were split by trypsin (0.25% in PBS; pH 7.4), and the medium was changed at 24 h intervals. The cells were cultured at 37 °C in a 5% CO2 incubator. The cells were passaged three times, then approximately 1 × 10^4 cells were seeded into each well of a 96-well plate and allowed to incubate to allow attachment of the cells to the surface. After 24 h, the medium was replaced with DMEM supplemented with 10% FBS containing various concentrations (0.1, 0.3, 1, 3, 10, and 30 μg/mL) of test compounds. Each concentration was tested in triplicate. After 48 h treatment, 20 µL of CCK-8 solution was added to each well and the optical density measured at 450 nm after 3 h using a microplate reader. The IC50 values were defined as the concentrations inhibiting 50% of cell growth.
# A549 = test: Cytotoxicity, CCK-8 assay; type: cell-based; settings: Homo sapiens, A549 lung cancer cells, 48 h
# Procedure: as §1
# [1] = tested on: Staphyiococcus aureus CMCC 25923; test: Antibacterial MIC, serial dilution; type: cell-based, Staphylococcus aureus; settings: Staphylococcus aureus, CMCC25923; S. aureus CMCC 25923, 24 h, 37 °C; read-out: MIC
# Procedure: (§2) Test bacteria were grown to mid-log phase in Mueller–Hinton broth (MHB) or Tryptone Soya Broth (TSB) and diluted 1000-fold in the same medium. Bacteria (10^5 CFU/mL) were inoculated into MHB or TSB and dispensed at 0.2 ml/well into a 96-well microtiter plate. As positive controls, gatifloxacin, moxifloxacin, norfloxacin, oxacillin, and penicillin were used. […] Bacterial growth was determined by measuring the absorption at 630 nm using a microplate reader. All experiments were carried out three times.
# (§3) The evaluation of antibacterial activity of all compounds (3a–3j and 6a–6k) was performed by a serial dilution method to determine the MIC against a panel of pathogens comprising five Gram-positive strains (S. aureus (CMCC(B) 26003 and CMCC 25923), Streptococcus mutans BNCC 336931, Enterococcus faecalis CMCC 29212, and Bacillus subtilis CMCC 63501), four Gram-negative strains (E. coli (CMCC 25922 and CMCC 44568) and P. aeruginosa (CMCC 27853 and CMCC 10104)), as well as three methicillin-resistant clinical isolates (S. aureus ATCC 43300 and ATCC 33591, P. aeruginosa ATCC BAA-2111). The results are described in Tables 1 and 2. Gatifloxacin, moxifloxacin, norfloxacin, oxacillin, and penicillin were used as positive controls.
# L02 = test: Cytotoxicity, CCK-8 assay, normal cell line; type: cell-based; settings: L02 normal human hepatocytes, 48 h
# Procedure: as §1
# [2] = tested on: Escherichia coli CMCC 44568; test: Antibacterial MIC, serial dilution; type: cell-based; settings: Escherichia coli, CMCC44568; E. coli CMCC 44568, 24 h, 37 °C; read-out: MIC
# Procedure: as §2, §3
# [3] = tested on: Pseudomonas aeruginosa CMCC 27853; test: Antibacterial MIC, serial dilution; type: cell-based; settings: Pseudomonas aeruginosa, CMCC27853; P. aeruginosa CMCC 27853, 24 h, 37 °C; read-out: MIC
# Procedure: as §2, §3
# [4] = tested on: Streptococcus mutans BNCC 336931; test: Antibacterial MIC, serial dilution; type: cell-based; settings: Streptococcus mutans, BNCC336931; S. mutans BNCC 336931, 24 h, 37 °C; read-out: MIC
# Procedure: as §2, §3
# [5] = tested on: Staphylococcus aureus CMCC(B)26003; test: Antibacterial MIC, serial dilution; type: cell-based; settings: Staphylococcus aureus; S. aureus CMCC(B)26003, 24 h, 37 °C; read-out: MIC
# Procedure: as §2, §3
# [6] = tested on: Bacillus subtilis CMCC 63501; test: Antibacterial MIC, serial dilution; type: cell-based; settings: Bacillus subtilis, CMCC63501; B. subtilis CMCC 63501, 24 h, 37 °C; read-out: MIC
# Procedure: as §2, §3
# [7] = tested on: Enterococcus faecalis CMCC 29212; test: Antibacterial MIC, serial dilution; type: cell-based; settings: Enterococcus faecalis, CMCC29212; E. faecalis CMCC 29212, 24 h, 37 °C; read-out: MIC
# Procedure: as §2, §3
# [8] = tested on: Escherichia coli CMCC 25922; test: Antibacterial MIC, serial dilution; type: cell-based; settings: Escherichia coli, CMCC25922; E. coli CMCC 25922, 24 h, 37 °C; read-out: MIC
# Procedure: as §2, §3
# [9] = tested on: Pseudomonas aeruginosa CMCC 10104; test: Antibacterial MIC, serial dilution; type: cell-based; settings: Pseudomonas aeruginosa, CMCC10104; P. aeruginosa CMCC 10104, 24 h, 37 °C; read-out: MIC
# Procedure: as §2, §3
# [10] = tested on: Staphylococcus aureus ATCC 43300; test: Antibacterial MIC, multidrug-resistant clinical isolate; type: cell-based; settings: Staphylococcus aureus, ATCC43300; multidrug-resistant S. aureus ATCC 43300; read-out: MIC
# Procedure: as §2, §3
# [11] = tested on: Pseudomonas aeruginosa ATCC BAA-2111; test: as above; type: cell-based; settings: ATCCBAA2111, multidrug-resistant P. aeruginosa ATCC BAA-2111
# Procedure: as §2, §3
# [12] = tested on: Staphylococcus aureus ATCC 33591; test: as above; type: cell-based; settings: Staphylococcus aureus, ATCC33591; multidrug-resistant S. aureus ATCC 33591; read-out: MIC
# Procedure: as §2, §3
# tested bacterial strains = test: Antibacterial MIC, panel of tested bacterial strains; type: cell-based; settings: against almost all of the tested strains
# Procedure: as §2, §3
Compound,melting point,MIC [1],MIC [2],MIC [3],MIC [4],MIC [5],MIC [6],MIC [7],MIC [8],MIC [9],MIC [10],MIC [11],MIC [12],IC50 (SGC7901),IC50 (A549),IC50 (L02),MIC (tested bacterial strains)
"Cc1cccc(C#CC#Cc2ccc(C=NNC(=N)N)cc2)c1 [Compound 6k, 2-(4-(m-Tolylbuta-1,3-diyn-1-yl)benzylidene)hydrazine-1-carboximidamide]",202 to 204 °C,32 µg/mL,128 µg/mL,> 128 µg/mL,0.5 µg/mL,1 µg/mL,2 µg/mL,0.5 µg/mL,4 µg/mL,4 µg/mL,,,,0.55 µg/mL,3.58 µg/mL,14.8 µg/mL,
"N=C(N)NN=Cc1ccc(C#Cc2cccc(Cl)c2)cc1 [Compound 3f, 2-(4-((3-Chlorophenyl)ethynyl)benzylidene)hydrazine-1-carboximidamide]",213 to 214 °C,1 µg/mL,4 µg/mL,> 128 µg/mL,2 µg/mL,1 µg/mL,0.5 µg/mL,0.5 µg/mL,2 µg/mL,2 µg/mL,,,,0.3 µg/mL,2.55 µg/mL,10.2 µg/mL,
"N=C(N)NN=Cc1ccc(C#CC#Cc2ccc(Cl)cc2)cc1 [Compound 6g, 2-(4-((4-Chlorophenyl)buta-1,3-diyn-1-yl)benzylidene)hydrazine-1-carboximidamide]",202 to 205 °C,> 128 µg/mL,128 µg/mL,> 128 µg/mL,> 128 µg/mL,> 128 µg/mL,> 128 µg/mL,128 µg/mL,128 µg/mL,> 128 µg/mL,,,,,,,≥ 128 µg/mL

# More lines, main results first:
melting point,MIC [1],MIC [2],MIC [3],MIC [4],MIC [5],MIC [6],MIC [7],MIC [8],MIC [9],MIC [10],MIC [11],MIC [12],Compound,IC50 (SGC7901),IC50 (A549),IC50 (L02),MIC (tested bacterial strains)
,0.125 µg/mL,0.125 µg/mL,2 µg/mL,1 µg/mL,0.125 µg/mL,2 µg/mL,1 µg/mL,0.125 µg/mL,2 µg/mL,0.5 µg/mL,1 µg/mL,0.25 µg/mL,"COc1c(N2CCNC(C)C2)c(F)cc2c(=O)c(C(=O)O)cn(C3CC3)c12 (stereo not shown) [Gatifloxacin, reference compound]",,,,
200 to 203 °C,2 µg/mL,8 µg/mL,> 128 µg/mL,2 µg/mL,0.5 µg/mL,1 µg/mL,0.5 µg/mL,2 µg/mL,4 µg/mL,2 µg/mL,,0.5 µg/mL,"N=C(N)NN=Cc1ccc(C#Cc2ccccc2Cl)cc1 [Compound 3e, 2-(4-((2-Chlorophenyl)ethynyl)benzylidene)hydrazine-1-carboximidamide]",0.45 µg/mL,4.57 µg/mL,12.4 µg/mL,
